Results as given in ChEMBL document CHEMBL4376834, “Discovery of 4H-Chromen-4-one Derivatives as a New Class of Selective Rho Kinase (ROCK) Inhibitors, which Showed Potent Activity in ex Vivo Diabetic Retinopathy Models” (J Med Chem, 2019).
pIC50: −log10 of the molar value.

What was measured:
[1] = biological target: Serine/threonine-protein kinase MARK2 (Homo sapiens, UniProt Q7KZI7); assay: Inhibition of recombinant full-length human PAR1Balpha using KKKVSRSGLYRSP as substrate measured after 40 mins in presence of [gamma33P]ATP by radiometric scintillation counting analysis
Sequence of Serine/threonine-protein kinase MARK2 (Q7KZI7 whole entry): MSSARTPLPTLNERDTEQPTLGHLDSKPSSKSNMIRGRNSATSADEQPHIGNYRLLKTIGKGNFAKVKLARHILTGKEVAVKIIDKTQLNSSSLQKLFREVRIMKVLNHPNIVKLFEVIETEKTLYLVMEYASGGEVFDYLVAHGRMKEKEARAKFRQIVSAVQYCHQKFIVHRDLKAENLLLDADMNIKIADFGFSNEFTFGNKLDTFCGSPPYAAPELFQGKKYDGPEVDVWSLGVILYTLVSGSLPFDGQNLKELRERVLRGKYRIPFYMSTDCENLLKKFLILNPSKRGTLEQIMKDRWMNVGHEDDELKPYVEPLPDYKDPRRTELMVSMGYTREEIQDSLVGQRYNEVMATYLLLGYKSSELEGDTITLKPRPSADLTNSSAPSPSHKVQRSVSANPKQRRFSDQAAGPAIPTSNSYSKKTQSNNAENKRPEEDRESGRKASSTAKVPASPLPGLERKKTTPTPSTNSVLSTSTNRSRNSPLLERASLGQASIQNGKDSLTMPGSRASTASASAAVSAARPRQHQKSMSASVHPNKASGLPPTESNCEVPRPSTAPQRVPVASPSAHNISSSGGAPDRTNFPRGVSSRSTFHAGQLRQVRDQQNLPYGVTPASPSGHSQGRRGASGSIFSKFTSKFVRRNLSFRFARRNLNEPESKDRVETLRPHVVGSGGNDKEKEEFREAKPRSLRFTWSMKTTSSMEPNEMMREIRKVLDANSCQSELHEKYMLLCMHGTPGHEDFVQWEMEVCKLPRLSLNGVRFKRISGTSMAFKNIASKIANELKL

[2] = biological target: Serine/threonine-protein kinase Chk2 (Homo sapiens, UniProt O96017, R145W); assay: Inhibition of recombinant human CHK2 R145W mutant (5 to end residues) using KKKVSRSGLYRSP as substrate incubated for 40 mins in presence of [gamma-33ATP] by radiometric scintillation counting analysis
Sequence of Serine/threonine-protein kinase Chk2 (O96017 whole entry R145W): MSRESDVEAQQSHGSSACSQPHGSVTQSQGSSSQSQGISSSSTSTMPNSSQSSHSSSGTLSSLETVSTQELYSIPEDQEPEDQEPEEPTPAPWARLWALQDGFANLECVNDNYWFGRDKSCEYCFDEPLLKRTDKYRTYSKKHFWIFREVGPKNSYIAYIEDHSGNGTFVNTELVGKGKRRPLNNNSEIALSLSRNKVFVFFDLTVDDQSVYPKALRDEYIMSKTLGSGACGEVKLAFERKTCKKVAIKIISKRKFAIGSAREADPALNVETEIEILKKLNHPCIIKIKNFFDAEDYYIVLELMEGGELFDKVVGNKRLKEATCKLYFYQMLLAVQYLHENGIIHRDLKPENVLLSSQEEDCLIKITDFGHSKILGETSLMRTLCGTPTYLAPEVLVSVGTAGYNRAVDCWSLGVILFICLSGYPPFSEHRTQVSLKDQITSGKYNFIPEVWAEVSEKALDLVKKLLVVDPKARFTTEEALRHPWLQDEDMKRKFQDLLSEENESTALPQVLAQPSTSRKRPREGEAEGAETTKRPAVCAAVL

[3] = biological target: Cyclin-dependent kinase 2/cyclin E1 (Homo sapiens, UniProt P24941); assay: Inhibition of recombinant full length human CDK2/CyclinE using Histone H1 as substrate incubated for 40 mins in presence of [gamma-33ATP] by radiometric scintillation counting analysis; type: protein-complex assay
[4] = biological target: Ephrin type-A receptor 4 (Homo sapiens, UniProt P54764); assay: Inhibition of recombinant human EphA4 (601 to 892 residues) using poly(Glu, Tyr) 4:1 as substrate measured after 40 mins in presence of [gamma33ATP] by radiometric scintillation counting analysis
[5] = biological target: Serine/threonine-protein kinase Nek2 (Homo sapiens, UniProt P51955); assay: Inhibition of recombinant full-length human NEK2 using myelin basic protein as substrate measured after 40 mins in presence of [gamma33P]ATP by radiometric scintillation counting analysis
[6] = biological target: Maternal embryonic leucine zipper kinase (Homo sapiens, UniProt Q14680); assay: Inhibition of recombinant human MELK (1 to 340 residues) using KKLNRTLSFAEPG as substrate incubated for 40 mins in presence of [gamma-33ATP by radiometric scintillation counting analysis
[7] = biological target: LIM domain kinase 2 (Homo sapiens, UniProt P53671); assay: Inhibition of human LIMK2 in presence of 10 uM of ATP by radiometric analysis
Sequence of LIM domain kinase 2 (P53671 whole entry, the tested form may be a part): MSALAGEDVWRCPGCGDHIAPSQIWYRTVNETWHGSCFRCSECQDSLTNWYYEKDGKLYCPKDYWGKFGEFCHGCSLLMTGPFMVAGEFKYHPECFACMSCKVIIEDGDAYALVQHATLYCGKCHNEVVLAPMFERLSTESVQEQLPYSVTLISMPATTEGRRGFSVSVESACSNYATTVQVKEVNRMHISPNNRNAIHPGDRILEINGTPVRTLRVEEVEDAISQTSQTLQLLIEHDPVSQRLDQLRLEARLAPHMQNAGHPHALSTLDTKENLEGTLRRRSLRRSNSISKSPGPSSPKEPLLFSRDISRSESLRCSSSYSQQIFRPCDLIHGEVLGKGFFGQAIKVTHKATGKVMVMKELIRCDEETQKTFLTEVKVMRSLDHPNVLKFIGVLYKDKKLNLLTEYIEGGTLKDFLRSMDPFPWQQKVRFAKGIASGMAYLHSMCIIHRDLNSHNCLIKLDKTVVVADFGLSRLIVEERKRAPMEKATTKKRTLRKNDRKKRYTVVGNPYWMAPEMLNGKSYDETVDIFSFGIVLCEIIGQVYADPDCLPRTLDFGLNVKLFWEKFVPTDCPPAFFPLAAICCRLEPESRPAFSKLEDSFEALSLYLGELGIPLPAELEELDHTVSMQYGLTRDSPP

[8] = biological target: Proto-oncogene tyrosine-protein kinase Src (Homo sapiens, UniProt P12931); assay: Inhibition of recombinant human SRC (1 to 530 residues) using GGEEEEYFELVKK as substrate incubated for 40 mins in presence of [gamma33P]ATP by radiometric scintillation counting analysis
Sequence of Proto-oncogene tyrosine-protein kinase Src (P12931 2-536 limits assumed): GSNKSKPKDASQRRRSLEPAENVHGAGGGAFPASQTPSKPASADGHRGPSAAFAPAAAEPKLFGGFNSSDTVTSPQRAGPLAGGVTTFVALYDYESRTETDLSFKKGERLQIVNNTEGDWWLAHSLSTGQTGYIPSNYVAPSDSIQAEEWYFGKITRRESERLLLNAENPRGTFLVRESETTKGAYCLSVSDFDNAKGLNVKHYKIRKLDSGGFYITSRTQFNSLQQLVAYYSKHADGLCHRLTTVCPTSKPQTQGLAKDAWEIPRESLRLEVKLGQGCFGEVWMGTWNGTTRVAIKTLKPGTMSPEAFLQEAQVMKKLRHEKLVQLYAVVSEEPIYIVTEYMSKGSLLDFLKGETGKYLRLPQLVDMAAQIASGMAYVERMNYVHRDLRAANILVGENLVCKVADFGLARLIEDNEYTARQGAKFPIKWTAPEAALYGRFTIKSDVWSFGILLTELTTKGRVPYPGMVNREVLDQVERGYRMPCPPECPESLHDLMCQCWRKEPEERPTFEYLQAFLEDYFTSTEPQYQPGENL

[9] = biological target: High affinity nerve growth factor receptor (Homo sapiens, UniProt P04629); assay: Inhibition of recombinant human TRKA (440 to end residues) using KKKSPGEYVNIEF as substrate incubated for 40 mins in presence of [gamma33P]ATP by radiometric scintillation counting analysis
[10] = biological target: Serine/threonine-protein kinase ULK1 (Homo sapiens, UniProt O75385); assay: Inhibition of recombinant human ULK1 (1 to 314 residues) using casein as substrate incubated for 40 mins in presence of [gamma33P]ATP by radiometric scintillation counting analysis
[11] = biological target: cAMP-dependent protein kinase catalytic subunit PRKX (Homo sapiens, UniProt P51817); assay: Inhibition of recombinant human full length PrKX using RRRLSFAEPG as substrate incubated for 40 mins in presence of [gamma33P]ATP by radiometric scintillation counting analysis
[12] = biological target: Tyrosine-protein kinase ABL1 (Homo sapiens, UniProt P00519, Q252H); assay: Inhibition of human recombinant ABL1 Q252H mutant (27 to end residues) using EAIYAAPFAKKK as substrate incubated for 40 mins in presence of [gamma-33P]ATP by radiometric scintillation counting analysis
[13] = biological target: Macrophage colony-stimulating factor 1 receptor (Homo sapiens, UniProt P07333, Y969C); assay: Inhibition of recombinant human FMS Y969C mutant (538 to end residues) using EEEEYEEEEEEYY as substrate after 40 mins in presence of [gamma-33ATP] by radiometric scintillation counting analysis
[14] = Inhibition of recombinant full length human JNK2alpha2 S51N mutant using ATF2 as substrate after 40 mins by [gamma-33ATP] by radiometric scintillation counting analysis
[15] = biological target: Death-associated protein kinase 1 (Homo sapiens, UniProt P53355); assay: Inhibition of recombinant human DAPK1 (1 to 296 residues) using KKLNRTLSFAEPG as substrate incubated 40 mins in presence of [gamma-33ATP] by radiometric scintillation counting analysis
[16] = biological target: Epidermal growth factor receptor (Homo sapiens, UniProt P00533, L861Q); assay: Inhibition of recombinant human EGFR L861Q mutant (696 to end residues) using poly(Glu, Tyr) 4:1 as substrate after 40 mins in presence of [gamma-33ATP] by radiometric scintillation counting analysis
[17] = biological target: Protein kinase C gamma type (Homo sapiens, UniProt P05129); assay: Inhibition of recombinant full-length human PKCgamma using histone H1 as substrate incubated for 40 mins in presence of [gamma33P]ATP by radiometric scintillation counting analysis
[18] = biological target: NT-3 growth factor receptor (Homo sapiens, UniProt Q16288); assay: Inhibition of recombinant human TRKC (510 to end residues) using GEEPLYWSFPAKK as substrate incubated for 40 mins in presence of [gamma33P]ATP by radiometric scintillation counting analysis
[19] = biological target: Fibroblast growth factor receptor 3 (Homo sapiens, UniProt P22607); assay: Inhibition of recombinant human FGFR3 (447 to 761 residues) using poly(Glu, Tyr) 4:1 as substrate after 40 mins in presence of [gamma-33ATP] by radiometric scintillation counting analysis
Sequence of Fibroblast growth factor receptor 3 (P22607 whole entry, the tested form may be a part): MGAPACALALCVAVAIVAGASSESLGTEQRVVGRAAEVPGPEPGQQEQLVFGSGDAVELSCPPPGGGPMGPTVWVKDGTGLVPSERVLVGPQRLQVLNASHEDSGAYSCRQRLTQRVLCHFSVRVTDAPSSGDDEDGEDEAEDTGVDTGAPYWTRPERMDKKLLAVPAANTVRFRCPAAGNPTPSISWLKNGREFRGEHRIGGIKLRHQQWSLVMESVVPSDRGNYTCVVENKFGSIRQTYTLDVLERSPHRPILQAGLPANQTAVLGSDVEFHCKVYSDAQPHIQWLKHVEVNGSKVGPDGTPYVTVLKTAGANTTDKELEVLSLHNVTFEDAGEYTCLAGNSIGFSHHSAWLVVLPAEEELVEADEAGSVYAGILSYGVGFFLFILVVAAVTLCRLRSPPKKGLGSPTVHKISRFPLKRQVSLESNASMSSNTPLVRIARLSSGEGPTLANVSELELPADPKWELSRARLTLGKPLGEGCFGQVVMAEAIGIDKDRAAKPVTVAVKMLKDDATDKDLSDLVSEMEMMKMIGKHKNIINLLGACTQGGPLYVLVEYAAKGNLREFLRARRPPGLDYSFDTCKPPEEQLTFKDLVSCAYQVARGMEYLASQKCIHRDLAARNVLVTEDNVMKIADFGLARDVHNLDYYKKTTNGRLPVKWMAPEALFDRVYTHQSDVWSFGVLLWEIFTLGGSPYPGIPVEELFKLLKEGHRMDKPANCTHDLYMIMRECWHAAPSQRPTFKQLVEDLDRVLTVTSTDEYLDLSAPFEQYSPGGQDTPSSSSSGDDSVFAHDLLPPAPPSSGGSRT

[20] = biological target: Calcium/calmodulin-dependent protein kinase type II subunit alpha (Homo sapiens, UniProt Q9UQM7); assay: Inhibition of recombinant full length human CaMK2alpha using KKLNRTLSFAEPG as substrate incubated for 40 mins in presence of [gamma-33ATP] by radiometric scintillation counting analysis
[21] = Inhibition of human SNRK E97G/P116A double mutant (65 to 409 residues) using KKLRRTLSFAEPG as substrate incubated for 40 mins in presence of [gamma33P]ATP by radiometric scintillation counting analysis
[22] = biological target: Activin receptor type-1 (Homo sapiens, UniProt Q04771); assay: Inhibition of human recombinant ALK2 (147 to end residues) using casein as substrate incubated for 40 mins in presence of [gamma-33P]ATP by radiometric scintillation counting analysis
[23] = biological target: Testis-specific serine/threonine-protein kinase 1 (Homo sapiens, UniProt Q9BXA7); assay: Inhibition of recombinant full-length human TSSK1 using KKKVSRSGLYRSP as substrate incubated for 40 mins in presence of [gamma33P]ATP by radiometric scintillation counting analysis
Sequence of Testis-specific serine/threonine-protein kinase 1 (Q9BXA7 whole entry): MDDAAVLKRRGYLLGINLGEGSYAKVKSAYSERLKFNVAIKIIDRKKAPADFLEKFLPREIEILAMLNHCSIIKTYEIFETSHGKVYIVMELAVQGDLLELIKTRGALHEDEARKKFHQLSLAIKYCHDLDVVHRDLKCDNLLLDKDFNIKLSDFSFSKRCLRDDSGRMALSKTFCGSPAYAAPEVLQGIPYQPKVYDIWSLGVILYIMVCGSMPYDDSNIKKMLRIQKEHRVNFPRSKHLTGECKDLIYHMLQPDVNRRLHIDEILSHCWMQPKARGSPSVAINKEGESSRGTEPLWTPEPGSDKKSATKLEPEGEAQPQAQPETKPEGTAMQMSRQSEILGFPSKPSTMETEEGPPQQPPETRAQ

[24] = biological target: Activin receptor type-1B (Homo sapiens, UniProt P36896); assay: Inhibition of human recombinant ALK4 (150 to end residues) using casein as substrate incubated for 40 mins in presence of [gamma-33P]ATP by radiometric scintillation counting analysis
Sequence of Activin receptor type-1B (P36896 whole entry): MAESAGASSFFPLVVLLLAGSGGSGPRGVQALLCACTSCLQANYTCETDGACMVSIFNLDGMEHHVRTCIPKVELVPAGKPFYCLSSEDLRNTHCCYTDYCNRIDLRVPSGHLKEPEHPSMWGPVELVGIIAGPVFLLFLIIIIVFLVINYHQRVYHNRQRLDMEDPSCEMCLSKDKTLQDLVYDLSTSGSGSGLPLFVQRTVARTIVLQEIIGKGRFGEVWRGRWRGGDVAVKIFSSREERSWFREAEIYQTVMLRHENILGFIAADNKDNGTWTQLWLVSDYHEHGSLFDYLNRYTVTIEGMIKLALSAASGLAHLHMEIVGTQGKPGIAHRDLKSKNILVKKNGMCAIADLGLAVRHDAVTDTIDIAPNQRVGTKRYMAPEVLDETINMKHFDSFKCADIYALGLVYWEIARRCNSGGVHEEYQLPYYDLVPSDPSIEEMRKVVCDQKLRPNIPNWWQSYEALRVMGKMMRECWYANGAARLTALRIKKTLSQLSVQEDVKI

[25] = biological target: Tyrosine-protein kinase receptor UFO (Homo sapiens, UniProt P30530, Q764R); assay: Inhibition of human recombinant Axl Q764R mutant (473 to end residues) using KKSRGDYMTMQIG as substrate measured after 40 mins in presence of [gamma33P]ATP by radiometric scintillation counting analysis
Sequence of Tyrosine-protein kinase receptor UFO (P30530 26-894 Q764R limits assumed): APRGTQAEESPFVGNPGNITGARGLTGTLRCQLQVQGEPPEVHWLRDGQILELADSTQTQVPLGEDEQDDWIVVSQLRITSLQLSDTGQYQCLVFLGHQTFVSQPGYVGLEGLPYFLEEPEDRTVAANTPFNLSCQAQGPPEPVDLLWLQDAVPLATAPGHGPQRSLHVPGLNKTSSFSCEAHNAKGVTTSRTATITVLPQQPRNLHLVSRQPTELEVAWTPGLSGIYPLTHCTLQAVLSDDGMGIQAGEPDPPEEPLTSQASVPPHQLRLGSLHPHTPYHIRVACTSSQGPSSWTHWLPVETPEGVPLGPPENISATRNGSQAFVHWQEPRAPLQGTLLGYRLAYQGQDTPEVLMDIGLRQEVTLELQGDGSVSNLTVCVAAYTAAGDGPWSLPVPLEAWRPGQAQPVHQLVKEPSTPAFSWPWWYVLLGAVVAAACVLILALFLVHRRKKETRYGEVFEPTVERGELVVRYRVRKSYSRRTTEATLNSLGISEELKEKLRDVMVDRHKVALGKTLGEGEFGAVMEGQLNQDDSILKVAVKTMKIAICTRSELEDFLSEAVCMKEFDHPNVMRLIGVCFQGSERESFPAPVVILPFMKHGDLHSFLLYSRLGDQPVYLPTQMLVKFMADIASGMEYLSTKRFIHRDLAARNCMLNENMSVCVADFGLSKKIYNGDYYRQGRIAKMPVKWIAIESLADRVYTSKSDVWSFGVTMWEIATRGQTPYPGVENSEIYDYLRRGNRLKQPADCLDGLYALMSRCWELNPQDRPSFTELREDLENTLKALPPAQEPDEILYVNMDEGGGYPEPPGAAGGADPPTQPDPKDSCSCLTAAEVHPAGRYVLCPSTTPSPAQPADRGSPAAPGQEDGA

CN(C)c1ccc(C(=O)Nc2cccc(NC(=O)COc3ccc4c(=O)ccoc4c3)c2)cc1
pIC50 [1]: < 5.00 | pIC50 [2]: < 5.00 | pIC50 [3]: < 5.00 | pIC50 [4]: < 5.00 | pIC50 [5]: < 5.00 | pIC50 [6]: < 5.00 | pIC50 [7]: 7.34 | pIC50 [8]: < 5.00 | pIC50 [9]: < 5.00 | pIC50 [10]: < 5.00 | pIC50 [11]: < 5.00 | pIC50 [12]: < 5.00 | pIC50 [13]: < 5.00 | pIC50 [14]: < 5.00 | pIC50 [15]: < 5.00 | pIC50 [16]: < 5.00 | pIC50 [17]: < 5.00 | pIC50 [18]: < 5.00 | pIC50 [19]: < 5.00 | pIC50 [20]: < 5.00 | pIC50 [21]: < 5.00 | pIC50 [22]: < 5.00 | pIC50 [23]: < 5.00 | pIC50 [24]: < 5.00 | pIC50 [25]: < 5.00
